In patent US20040209841A1, “Association compound of trehalose or maltitol with metal ion compound” (priority 2001, published 2004):
Read-outs that look alike come from different tables or passages of the source. One block for each compound: values may come before it.

Assays:
[1] = Hygroscopicity (deliquescence) test; type: physicochemical; conditions: for Moisture content/g-sample: 25° C.
Procedure: A dried bittern powder was prepared by drying bittern solution in vacuo at 60° C. for 15 hours, pulverized, and dried in a usual manner for use as a control. The moisture content (weight of moisture per one gram of the sample) of each sample was measured by conventional drying loss method. […] The weight of the content in each cup was measured at the initiation of preservation (0 day preservation), and 1, 2, 4, and 7 days after the initiation. The amount of moisture per one gram of each at sample after 1 to 7 days preservation was calculated based on the assumption that the increased amount measured to that of 0 day preservation was the amount of moisture absorbed by each sample.

[2] = Change of solubility of metal ion compounds by the association with trehalose (precipitation of crystal); type: physicochemical
Procedure: The changes of solubility in water of trehalose and/or metal ion compounds were examined under coexistence of trehalose and metal ion compounds. […] Solutions prepared by dissolving the same amount of trehalose only or that of metal ion compounds only were prepared as controls. After dissolving the contents completely, all the beakers were allowed to stand at room temperature (25° C.) for 24 hours. Successively, precipitation of crystals was judged by macroscopic observation. In the case of precipitating crystals, the formed crystals were collected and analyzed for those component(s) by conventional method.

[3] = pH 3.5
Procedure: Effects of trehalose, maltitol, and other saccharides on the solubilities of calcium-organic acid salts were investigated as follows. […] Successively, five grams of commercially available calcium DL-lactate pentahydrate or calcium gluconate monohydrate, used as calcium-organic acid salts, were added to each saccharide solution, followed by suspension. Thereafter, the pH of each solution was adjusted to 3.5, and the solution was filled up to give a volume of 50 ml with deionized water. After stirring at 25° C. for 16 hours, insoluble calcium-organic acid salts were removed by centrifuging (15,000 rpm for 30 minutes). The pHs of the resulting supernatants were measured. The calcium concentrations of the supernatant were measured using an atomic adsorption photometer described in Experiment 5. The solution prepared with no saccharide was also measured for calcium concentration in the same manner as control.

[4] = Suppressing effect on the oxidation of ferrous ion (Nitroso-DMAP method); type: physicochemical; conditions: for Amount of Fe2+ ion (mg/ml) After light-irradiation: 37° C. four hours, light of about 9,000 luxes, 5% (w/v) saccharide; for Amount of Fe2+ ion (mg/ml) Before light-irradiation: ferrous chloride 1% (w/v) as ferrous ion + 5% (w/v) saccharide
Procedure: Generally, ferrous ion (divalent, Fe^2+) and ferric ion (trivalent, Fe^3+) are known as ions of iron element. Ferrous ion is easily oxidized with light or heat and converted to ferric ion. Effects of trehalose and maltitol on the phenomenon were investigated as follows. An aqueous solution, comprising ferrous chloride (FeCl2) tetrahydrate corresponding to the amount of 1% (w/v) as ferrous ion, and comprising trehalose or maltitol corresponding to the amount of 5% (w/v), d.s.b., was prepared as a test solution. While, a solution, comprising ferrous chloride only with the same concentration to the test solution, was prepared as a control solution. After preparing the test and control solutions, small portions of which were sampled respectively, and the amount of ferrous ion was measured by the Nitroso-DMAP method described later. Successively, 10 ml each of the test and control solution was placed separately in a 20 ml-vial and sealed. After preserving these vials at 37° C. for four hours with irradiating a light of about 9,000 luxes, the amount of ferrous ion in each solution was measured by the Nitroso-DMAP method. Measurement by the Nitroso-DMAP method was carried out as follows. After diluting the test or control solution accurately by 100-fold, 0.5 ml of the dilute was placed in a 50 ml-volumetric flask. […] After the above procedure, the absorbance at 750 nm (within the visible light range) of the solution was measured. The standard solutions, prepared by diluting stepwise a ferrous chloride solution with known concentration, were used for the measurement in the same manner to obtain a standard curve for quantitative analysis. The amount of ferrous ion of the test or the control solution was determined with the standard curve.

[5] = Suppressing effect on the deterioration of ascorbic acid under the presence of metal ion (degree of coloring); type: physicochemical; conditions: 50° C.; for Degree of coloring (Abs. at 420 nm) Preserved for 96 hrs: 14.8 mM AsA + 10 mM FeCl2 + 100 mM saccharide
Procedure: L-Ascorbic acid deteriorates rapidly by the oxidative degradation in the presence of iron and copper ions and causes the browning. The effects of trehalose and maltitol on the phenomenon were investigated as follows. Ten kinds of aqueous solutions having respective compositions described in Table 12 were prepared. Aqueous solutions of L-ascorbic acid alone or L-ascorbic acid and metal ion compounds were used as controls. The test solutions were prepared by adding trehalose or maltitol to the control solutions. Ten milliliters of each of these test and control solutions were placed into different 20 ml-vials and sealed. The vials were preserved at 50° C. The control and test solutions, containing ferrous chloride, and those containing ferric chloride or copper sulfate were preserved for 96 hours and 40 hours, respectively. After the preservation, the degree of coloring of each solution was measured. In the case of a control solution containing L-ascorbic acid alone, the degrees of coloring were measured at the preservation periods of 40 hours and 96 hours. The absorbance at 420 nm (within the visible light range) of each sample was measured as the degree of coloring.

[6] = 0.1 mole metal ion compound only, 30 grams of water, 25° C. 24 hours
[7] = 14.8 mM AsA + 10 mM CuSO4 + 100 mM saccharide
[8] = 14.8 mM AsA + 10 mM FeCl3 + 100 mM saccharide

SMILES: O.O.[Ca+2].[Cl-].[Cl-] [CaCl2 · 2H2O, calcium chloride dihydrate]
- moisture content (weight of moisture per one gram of the sample) ([1]; before preservation, drying loss method): 0.245 g
- Moisture content/g-sample ([1]; relative humidity 33.0%, 0 day): 0.245 g
- Moisture content/g-sample ([1]; relative humidity 33.0%, 1 day): 0.289 g
- Moisture content/g-sample ([1]; relative humidity 33.0%, 2 days): 0.312 g
- Moisture content/g-sample ([1]; relative humidity 33.0%, 3 days): 0.343 g
- Moisture content/g-sample ([1]; relative humidity 33.0%, 7 days): 0.364 g
- Moisture content/g-sample ([1]; relative humidity 52.8%, 0 day): 0.245 g
- Moisture content/g-sample ([1]; relative humidity 52.8%, 1 day): 0.319 g
- Moisture content/g-sample ([1]; relative humidity 52.8%, 2 days): 0.359 g
- Moisture content/g-sample ([1]; relative humidity 52.8%, 3 days): 0.405 g
- Moisture content/g-sample ([1]; relative humidity 52.8%, 7 days): 0.430 g

SMILES: O.O.O.O.[Cl][Fe][Cl] [Ferrous chloride, ferrous chloride tetrahydrate]
- Precipitation of crystal In the absence of trehalose [2, 6]: Precipitated

SMILES: O.O.O.O.[Cl][Mn][Cl] [Manganese chloride, manganese chloride tetrahydrate]
- Precipitation of crystal In the presence of trehalose ([2]; 0.1 mole metal ion compound + 0.1 mole trehalose, 30 grams of water, room temperature (25° C.) 24 hours, macroscopic observation): None
- Precipitation of crystal In the absence of trehalose [2, 6]: Precipitated

SMILES: O.O.O.O.O.O.[Cl][Ni][Cl] [Nickel chloride, nickel chloride hexahydrate]
- Precipitation of crystal In the absence of trehalose [2]: Precipitated
- Precipitation of crystal In the presence of trehalose [2]: None

The remaining lines, values ahead:

- Precipitation of crystal In the absence of trehalose [2, 6]: Precipitated
SMILES: [Cl][Cu] [Cuprous chloride, cuprous chloride dihydrate]

- Relative conc. (%), Calcium gluconate [3]: 128%
- Relative conc. (%), Calcium lactate [3]: 123%
- increase of calcium concentration in the supernatant in comparison with control, calcium gluconate [3]: 28%
- increase of calcium concentration in the supernatant in comparison with control, calcium lactate [3]: 23%
- Amount of Fe2+ ion (mg/ml) After light-irradiation [4]: 4.3 mg/mL
- Amount of Fe2+ ion (mg/ml) Before light-irradiation [4]: 10.2 mg/mL
- Degree of coloring (Abs. at 420 nm) Preserved for 40 hrs [5, 7]: 0.258
- Degree of coloring (Abs. at 420 nm) Preserved for 96 hrs [5]: 0.291
- Degree of coloring (Abs. at 420 nm) Preserved for 40 hrs [5, 8]: 0.198
SMILES: OC[C@@H](O)[C@@H](O[C@H]1O[C@H](CO)[C@@H](O)[C@H](O)[C@H]1O)[C@H](O)[C@@H](O)CO [Maltitol, maltitol]

- Relative conc. (%), Calcium gluconate ([3]; 16 h, 100 mg/ml): 112%
- Relative conc. (%), Calcium lactate ([3]; 16 h, 100 mg/ml): 129%
- increase of calcium concentration in the supernatant in comparison with control, calcium gluconate ([3]; 16 h, 100 mg/ml): 12%
- increase of calcium concentration in the supernatant in comparison with control, calcium lactate ([3]; 16 h, 100 mg/ml): 29%
- Amount of Fe2+ ion (mg/ml) After light-irradiation [4]: 4.4 mg/mL
- Amount of Fe2+ ion (mg/ml) Before light-irradiation [4]: 10.1 mg/mL
- Degree of coloring (Abs. at 420 nm) Preserved for 40 hrs [5, 7]: 0.311
- Degree of coloring (Abs. at 420 nm) Preserved for 96 hrs [5]: 0.380
- Degree of coloring (Abs. at 420 nm) Preserved for 40 hrs [5, 8]: 0.226
SMILES: OC[C@H]1O[C@H](O[C@H]2O[C@H](CO)[C@@H](O)[C@H](O)[C@H]2O)[C@H](O)[C@@H](O)[C@@H]1O [Trehalose, α,α-trehalose]
